Results published in patent US12655127B2, “Fused ring compound as Wee-1 inhibitor” (WIGEN BIOMEDICINE TECHNOLOGY (SHANGHAI) CO., LTD., priority 2021, dated 2026).
pIC50: −log10 of the molar value.

Columns and labels:
MIA PaCa-2 cells [1] = assay: In-vitro anti-proliferative activity on MIA PaCa-2 cells; assay type: cell-based; conditions: Homo sapiens, 72 h after dosing, intracellular ATP content
Experimental: (§1) MIA PaCa-2 cells were seeded on a 384-well plate at 3000 cells/well. After overnight adherence culture, DMSO or the compounds serially diluted 1:5 from 5 μM were added. The viability was assessed 72 h after dosing by measuring the intracellular ATP content. The inhibition percentage of viable cells by the compounds was calculated by comparing with the DMSO group, and the IC50 value was calculated.

MIA PaCa-2 cells [2] = assay: In-vitro anti-proliferative activity in combination with gemcitabine on MIA PaCa-2 cells; assay type: cell-based; conditions: with 20 nM gemcitabine, 72 h after dosing, intracellular ATP content
Experimental: as §1, with “cells/well, and 20 nM gemcitabine was added.” for “cells/well.”, “100 nM” for “5 μM”

[3] = target: recombinant protein Wee-1 (Homo sapiens, UniProt P30291); assay: Inhibition of enzymatic activity of recombinant protein Wee-1 (HTRF); assay type: biochemical
Experimental: The inhibitory effect of the compounds on the enzyme activity of recombinant protein Wee-1 was determined by HTRF. The procedures are as follows:
After DMSO or serially diluted compounds (up to 200 nM, 1:5 serially diluted) and recombinant proteins were co-incubated in a kinase buffer at 37° C. for 30 min Fluorescein-PolyGAT and ATP were added, and then the reaction was started by the addition of a substrate. After incubation at room temperature for 90 min, an antibody and a detection solution were added, and after further incubation at room temperature for 60 min, fluorescence values were detected (excitation wavelength: 340 nm, emission wavelengths: 495 and 520 nm). The 520 nm/495 nm fluorescence intensity ratio value was calculated, and compared with that of the DMSO group, and then the inhibition percentages and IC50 values of the compounds were calculated.

[4] = test system: HT29 subcutaneous xenograft tumor; assay: Mouse HT29 subcutaneous xenograft tumor model; assay type: in vivo; conditions: for TGI: day 18, nude mouse HT29 xenograft; for Tumor volume on day 1 of treatment (mm^3) / Tumor volume on day 18 of treatment (mm^3): nude mouse HT29 xenograft
Experimental: HT29 is a colon cancer cell. Each nude mouse was grafted subcutaneously with 5×10^6 HT29 cells. When the tumor grew to 100-200 mm^3, the compound was administered orally once a day alone or in combination with 15 mg/kg of gemcitabine injected intraperitoneally once a week, and the tumor volume was measured twice a week and at the end of treatment. Tumor growth inhibition of the compound was calculated according to the following equation: tumor growth inhibition (TGI)=1−(tumor volume on day 18 in treatment group−tumor volume on day 1 in treatment group)/(tumor volume on day 18 in vehicle control group−tumor volume on day 1 in treatment group).

[5] = gemcitabine 15 mg/kg intraperitoneally once a week
[6] = 30 mg/kg orally once a day in combination with 15 mg/kg of gemcitabine i.p. once a week
[7] = monotherapy, 30 mg/kg orally once a day

Chain of recombinant protein Wee-1 (P30291 whole entry): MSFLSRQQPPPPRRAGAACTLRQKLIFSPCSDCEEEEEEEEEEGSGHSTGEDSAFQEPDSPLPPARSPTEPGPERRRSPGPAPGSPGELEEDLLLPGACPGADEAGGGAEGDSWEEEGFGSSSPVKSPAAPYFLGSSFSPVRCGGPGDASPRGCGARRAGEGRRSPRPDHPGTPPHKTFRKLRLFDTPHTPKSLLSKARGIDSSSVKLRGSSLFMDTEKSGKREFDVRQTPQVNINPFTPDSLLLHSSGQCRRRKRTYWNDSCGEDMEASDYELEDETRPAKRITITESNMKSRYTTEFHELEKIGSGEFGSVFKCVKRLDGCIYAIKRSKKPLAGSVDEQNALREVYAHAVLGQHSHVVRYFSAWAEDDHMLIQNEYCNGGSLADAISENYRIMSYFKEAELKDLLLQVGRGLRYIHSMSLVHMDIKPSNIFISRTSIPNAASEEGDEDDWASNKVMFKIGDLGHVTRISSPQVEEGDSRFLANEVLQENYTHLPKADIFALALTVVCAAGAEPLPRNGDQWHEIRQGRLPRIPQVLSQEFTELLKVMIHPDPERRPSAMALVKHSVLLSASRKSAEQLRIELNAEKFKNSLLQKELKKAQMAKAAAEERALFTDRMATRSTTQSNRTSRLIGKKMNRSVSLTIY

Molecule `CN1Cc2cc(Nc3ncc(C#N)c(Nc4ccc(F)c(N=S(C)(C)=O)n4)n3)cc3c2C(CCC3)C1` (stereo not shown) [Compound 110] has a pIC50 (MIA PaCa-2 cells [1]) of 6.73 and a pIC50 (MIA PaCa-2 cells [2]) of 8.96.

In the case of `CN1Cc2cc(Nc3ncc(C#N)c(Nc4cccc(N=S(C)(C)=O)n4)n3)cc3c2C1CCC3` (stereo not shown) [Compound 87], the pIC50 [3] was ≥ 8.00, the pIC50 (MIA PaCa-2 cells [1]) was 6.74 and the pIC50 (MIA PaCa-2 cells [2]) was 8.80.

For `CN1Cc2cc(Nc3ncc(C#N)c(Nc4cccc(P(C)(C)=O)n4)n3)cc3c2C(CCC3)C1` (stereo not shown) [Compound 137], the pIC50 [3] was ≥ 8.00, the pIC50 (MIA PaCa-2 cells [1]) was < 5.30 and the pIC50 (MIA PaCa-2 cells [2]) was 7.59.

With `CN1Cc2cc(Nc3ncc(C#N)c(Nc4ccc(Cl)c(N=S(C)(C)=O)n4)n3)cc3c2C(CCC3)C1` (stereo not shown) [Compound 296] the pIC50 [3] was ≥ 8.00, the pIC50 (MIA PaCa-2 cells [1]) was 6.79 and the pIC50 (MIA PaCa-2 cells [2]) was 8.51.

For `CN1Cc2cc(Nc3ncc(C#N)c(Nc4cccc(N=S(C)(C)=O)n4)n3)cc3c2C(CCO3)C1` (stereo not shown) [Compound 64], the pIC50 [3] was ≥ 8.00, the pIC50 (MIA PaCa-2 cells [1]) was 6.40 and the pIC50 (MIA PaCa-2 cells [2]) was 8.46.

In the case of `CN1Cc2cc(Nc3ncc(C#N)c(Nc4cc5ccccc5c(N=S(C)(C)=O)n4)n3)cc3c2C(CCC3)C1` (stereo not shown) [Compound 108], the pIC50 [3] was ≥ 8.00, the pIC50 (MIA PaCa-2 cells [1]) was 6.65 and the pIC50 (MIA PaCa-2 cells [2]) was 7.96.

In the case of `CN1Cc2cc(Nc3ncc(C#N)c(Nc4cccc(N=S(C)(C)=O)n4)n3)cc3c2[C@@](C)(CCC3)C1` [Compound 6], the pIC50 [3] was ≥ 8.00, the pIC50 (MIA PaCa-2 cells [1]) was 6.04 and the pIC50 (MIA PaCa-2 cells [2]) was 8.28.

In the case of `COc1ccc(Nc2nc(Nc3cc4c5c(c3)CN(C)CC5CCC4)ncc2C#N)nc1N=S(C)(C)=O` (stereo not shown) [Compound 121], the pIC50 [3] was ≥ 8.00, the pIC50 (MIA PaCa-2 cells [1]) was 7.05 and the pIC50 (MIA PaCa-2 cells [2]) was 8.85.

In the case of `Nc1ccn([C@@H]2O[C@H](CO)[C@@H](O)C2(F)F)c(=O)n1` [Gemcitabine, gemcitabine, reference compound], the TGI [4, 5] was 57%, the “Tumor volume on day 1 of treatment (mm^3)” value [4, 5] was 112 mm^3 and the “Tumor volume on day 18 of treatment (mm^3)” value [4, 5] was 539 mm^3.

In the case of `CN1Cc2cc(Nc3ncc(C#N)c(Nc4nc(N=S(C)(C)=O)ccc4F)n3)cc3c2C(CCC3)C1` (stereo not shown) [Compound 112], the pIC50 [3] was ≥ 8.00, the pIC50 (MIA PaCa-2 cells [1]) was < 5.30 and the pIC50 (MIA PaCa-2 cells [2]) was 7.54.

With `Cc1ccc(Nc2nc(Nc3cc4c5c(c3)CN(C)CC5CCC4)ncc2C#N)nc1N=S(C)(C)=O` (stereo not shown) [Compound 295] the pIC50 [3] was ≥ 8.00, the pIC50 (MIA PaCa-2 cells [1]) was 7.14 and the pIC50 (MIA PaCa-2 cells [2]) was 8.82.

With `CN1Cc2cc(Nc3ncc(C#N)c(Nc4cccc(N=S(C)(C)=O)n4)n3)cc3c2[C@](C)(CCC3)C1` [Compound 5] the pIC50 [3] was ≥ 8.00, the pIC50 (MIA PaCa-2 cells [1]) was 5.93 and the pIC50 (MIA PaCa-2 cells [2]) was 8.68.

With `CN1Cc2cc(Nc3ncc(C#N)c(Nc4cccc(N=S(C)(C)=O)n4)n3)cc3c2C(C)(CCC3)C1` (stereo not shown) [Compound 4] the pIC50 [3] was ≥ 8.00, the pIC50 (MIA PaCa-2 cells [1]) was 6.01 and the pIC50 (MIA PaCa-2 cells [2]) was 8.62.

With `COc1c(Nc2ncc(C#N)c(Nc3cccc(N=S(C)(C)=O)n3)n2)cc2c3c1CCCC3CN(C)C2` (stereo not shown) [Compound 49] the pIC50 [3] was 7.30 to 8.00, the pIC50 (MIA PaCa-2 cells [1]) was < 5.30 and the pIC50 (MIA PaCa-2 cells [2]) was < 7.00.

`CN1Cc2cc(Nc3ncc(C#N)c(Nc4cccc(N=S(C)(C)=O)n4)n3)cc3c2[C@H](CCC3)C1` (single isomer, unassigned) [Compound 2] was tested, and the pIC50 [3] was ≥ 8.00, the pIC50 (MIA PaCa-2 cells [1]) was 6.59 and the pIC50 (MIA PaCa-2 cells [2]) was 9.61. For the same molecule, the TGI [4, 6] was 109%, the “Tumor volume on day 1 of treatment (mm^3)” value [4, 6] was 112 mm^3 and the “Tumor volume on day 18 of treatment (mm^3)” value [4, 6] was 11 mm^3. For the same molecule, the TGI [4, 7] was 99%, the “Tumor volume on day 1 of treatment (mm^3)” value [4, 7] was 112 mm^3 and the “Tumor volume on day 18 of treatment (mm^3)” value [4, 7] was 115 mm^3.

With `CN1Cc2cc(Nc3ncc(C#N)c(Nc4cccc(N=S(C)(C)=O)n4)n3)cc3c2C(C1)NCC3` (stereo not shown) [Compound 130] the pIC50 [3] was ≥ 8.00.

`CN1Cc2cc(Nc3ncc(C#N)c(Nc4cccc(N=S(C)(C)=O)n4)n3)cc3c2C(CC3)C1` (stereo not shown) [Compound 50] was tested, and the pIC50 [3] was 7.30 to 8.00, the pIC50 (MIA PaCa-2 cells [1]) was 6.83 and the pIC50 (MIA PaCa-2 cells [2]) was < 7.00.

`CN1Cc2cc(Nc3ncc(C#N)c(Nc4cccc(N=S(C)(C)=O)n4)n3)cc3c2C(CCS3)C1` (stereo not shown) [Compound 65] was tested, and the pIC50 [3] was ≥ 8.00.

With `CN1Cc2cc(Nc3ncc(C#N)c(Nc4cccc(N=S(C)(C)=O)n4)n3)cc3c2C2(CC2CC3)C1` (stereo not shown) [Compound 39] the pIC50 [3] was ≥ 8.00.

With `CN(C)CCN1Cc2cc(Nc3ncc(C#N)c(Nc4cccc(N=S(C)(C)=O)n4)n3)cc3c2C(CCC3)C1` (stereo not shown) [Compound 17] the pIC50 [3] was ≥ 8.00.

For `[2H]C1([2H])C2CCCc3cc(Nc4ncc(C#N)c(Nc5cccc(N=S(C)(C)=O)n5)n4)cc(c32)CN1C` (stereo not shown) [Compound 279], the pIC50 [3] was ≥ 8.00.

In the case of `CN1Cc2cc(Nc3ncc(C#N)c(Nc4cccc(N=S(C)(C)=O)n4)n3)cc3c2C(CSC3)C1` (stereo not shown) [Compound 67], the pIC50 [3] was ≥ 8.00.

In the case of `CN1Cc2cc(Nc3ncc(C#N)c(Nc4cccc(N=S(C)(C)=O)n4)n3)cc3c2C(C1)CN(C)C3` [Compound 126], the pIC50 [3] was ≥ 8.00.

With `CN1Cc2cc(Nc3ncc(C#N)c(Nc4cccc(N=S(C)(C)=O)n4)n3)cc3c2[C@@H](CCC3)C1(C)C` [Compound 25] the pIC50 [3] was ≥ 8.00.

For `CN1Cc2cc(Nc3ncc(C#N)c(Nc4cncc(N=S(C)(C)=O)n4)n3)cc3c2C(CCC3)C1` (stereo not shown) [Compound 105], the pIC50 [3] was ≥ 8.00, the pIC50 (MIA PaCa-2 cells [1]) was 6.36 and the pIC50 (MIA PaCa-2 cells [2]) was 8.68.

For `CN1Cc2nc(Nc3ncc(C#N)c(Nc4cccc(N=S(C)(C)=O)n4)n3)cc3c2C(CCC3)C1` (stereo not shown) [Compound 40], the pIC50 [3] was ≥ 8.00.

`CN1Cc2cc(Nc3ncc(C#N)c(Nc4cccc(N=S(C)(C)=O)n4)n3)cc3c2C(CCCC3)C1` (stereo not shown) [Compound 56] was tested, and the pIC50 [3] was 7.30 to 8.00.

For `CN1Cc2cc(Nc3ncc(C#N)c(Nc4cccc(N=S(C)(C)=O)n4)n3)cc3c2C(C)(CCCCC3)C1` (stereo not shown) [Compound 63], the pIC50 [3] was ≥ 8.00.

With `CN1Cc2cc(Nc3ncc(C#N)c(Nc4cccc(N=S(C)(C)=O)n4)n3)cc3c2[C@@H](CCC3)C1` (single isomer, unassigned) [Compound 3] the pIC50 [3] was ≥ 8.00, the pIC50 (MIA PaCa-2 cells [1]) was 5.96 and the pIC50 (MIA PaCa-2 cells [2]) was 8.19.

For `CN1Cc2cc(Nc3ncc(C#N)c(Nc4cccc(N=S(C)(C)=O)n4)n3)cc3c2C(CCSC3)C1` (stereo not shown) [Compound 77], the pIC50 [3] was ≥ 8.00.

For `CN1Cc2cc(Nc3ncc(C#N)c(Nc4cncc(N=S(C)(C)=O)c4)n3)cc3c2C(CCC3)C1` (stereo not shown) [Compound 103], the pIC50 [3] was ≥ 8.00.

For `CN1Cc2cc(Nc3ncc(C#N)c(Nc4cccc(N=S(C)(C)=O)n4)n3)cc3c2C(CCC3)C1` (stereo not shown) [Compound 1], the pIC50 [3] was ≥ 8.00, the pIC50 (MIA PaCa-2 cells [1]) was 6.63 and the pIC50 (MIA PaCa-2 cells [2]) was 8.72.

For `CN1Cc2cc(Nc3ncc(C#N)c(Nc4cccc(N=S5(=O)CCC5)n4)n3)cc3c2C(CCC3)C1` (stereo not shown) [Compound 92], the pIC50 [3] was ≥ 8.00.
